The record followed here is patent EP0467365A2, “Use of a 5-hydroxytryptamine-3(5-HT3) receptor antagonist for the preparation of a pharmaceutical composition for treating urinary incontinence” (E.R. SQUIBB & SONS, INC., priority 1990, dated 1992).

“Also recorded” adds a separate entry of the source. Structures can show the parent of a compound that is named as a salt. Where two headings read alike, the source gives them in different places.

What all share (type): cell-based
Test [1] deals with rabbit bladder strips. As to the kind of experiment: 5-HT-induced contraction of rabbit bladder (detrusor) strips, organ bath tension recording. The following applies: for atropine and α,β-methylene ATP-resistant component of 5-HT-induced contraction: bladder strips, in presence of atropine and α,β-methylene ATP; for effect on the contractile response to 5-HT: ketanserine 10^-7 to 10^-6M, methysergide and metitepine 10^-8 to 10^-7M, anterior detrusor of female rabbits; for antagonism of the 5-HT-induced contraction / pA2: 30 minutes exposure; for antagonism of the 5-HT-induced contraction: BRL 43694 5 x 10^-11 to 2 x 10^-10M, ICS 205930 5 x 10^-12 to 1 x 10^-10M, MDL 72222 5 x 10^-10 to 5 x 10^-9M; for pA2: antagonism of 5-HT-induced contraction, rabbit detrusor strips, Schild plot, mean ± s.e.mean; for inhibition of the 5-HT contractions: atropine 10^-7M, α,β-methylene ATP 10^-6M.

For test [2], the system named is rabbit bladder. The test can be described thus: Contractile response of rabbit bladder strips to electrical field stimulation of intrinsic nerves. The following applies: for effect on the response to field stimulation: α,β-methylene ATP dose-dependent, all frequencies.
Test [3] concerns urethra. As to the kind of experiment: 5-HT-induced contraction of rabbit urethra strips, organ bath tension recording. Particulars: 30-second application, 10^-6 to 10^-3M.

For the molecule Ketanserine tartrate, in test [1], the “atropine and α,β-methylene ATP-resistant component of 5-HT-induced contraction” value is recorded as “not abolished”. In addition, the “effect on the contractile response to 5-HT” value (“effect … to 5-HT” for short) in test [1] was “no effect”; in test [1] (listed as ketanserine) it was “no significant effect”.

Consider `CN1C2CCCC1CC(NC(=O)c1nn(C)c3ccccc13)C2` (stereo not drawn) [BRL 43694, [endo]N-(9-methyl-9-azabicyclo-[3,3,1]-non-3-yl)-1-methyl-1H-indazole-3-carboxamide hydrochloride], for which the “antagonism of the 5-HT-induced contraction” value (“antagonism” for short) in test [1] (hydrochloride) was “strongly and competitively antagonized; also recorded: dose-dependent inhibition”. For the same molecule, the “antagonism” value in test [1] (listed as BRL 43695, hydrochloride) was “effective at blocking”. Besides, in test [1], the pA2 is recorded as 10.5 ± 0.01; the “atropine and α,β-methylene ATP-resistant component of 5-HT-induced contraction” value is “not abolished”.

`CC[C@@H](CO)NC(=O)[C@@H]1C=C2c3cccc4c3c(cn4C)C[C@H]2N(C)C1` [methysergide, Methysergide bimaleate]: in test [1], the “atropine and α,β-methylene ATP-resistant component of 5-HT-induced contraction” value is listed as “not abolished”; the “effect … to 5-HT” value is listed as “no significant effect”.

In the case of `CN1[C@@H]2CC[C@H]1C[C@@H](OC(=O)c1c[nH]c3ccccc13)C2` [ICS 205930, 3a-tropanyl-1 H-indole-3-carboxylic acid ester], in test [1], the “antagonism” value is “strongly and competitively antagonized; also recorded: effective at blocking”; the pA2 stood at 12.5 ± 0.36; the “atropine and α,β-methylene ATP-resistant component of 5-HT-induced contraction” value is on record as “not abolished”. The “antagonism” value in test [1] (listed as ICS 205-930) is recorded as “most potent antagonistic effect”.

Regarding `CN1[C@@H]2CC[C@H]1C[C@@H](OC(=O)c1cc(Cl)cc(Cl)c1)C2` [MDL 72222, laH,3a,5aH-tropan-3-yl-3,5-dichlorobenzoate], the “effect on the contraction to field stimulation” value in test [2] (10^-7M) is reported as “no effect”. Besides, in test [1], the “antagonism” value is “strongly and competitively antagonized; also recorded: dose-dependent inhibition; also recorded: effective at blocking”; the pA2 is on record as 9.3 ± 0.04; the “atropine and α,β-methylene ATP-resistant component of 5-HT-induced contraction” value is recorded as “not abolished”.

With `COc1cc2nc(N3CCN(C(=O)c4ccco4)CC3)nc(N)c2cc1OC` [prazosin, Prazosin hydrochloride], in test [1] (hydrochloride), the “effect on the 5-HT-induced contraction of the rabbit bladder” value (“effect on the 5-HT-induced contraction” for short) is recorded as “did not affect; also recorded: not blocked”.

On to `NC1=N[C@H](O)[C@H]2[C@H]3O[C@]4(O)O[C@@H]([C@@H](O)[C@@]2(N1)[C@@H]4O)[C@]3(O)CO` [TTX, Tetrodotoxin], for which, in test [2], the “abolition of the responses to field stimulation” value was “complete; also recorded: completely blocks”. Further, the “effect on the 5-HT-induced contraction” value in test [1] is recorded as “did not affect; also recorded: no effect”.

Turning to Metitepine monomethanesulfonate, in test [1], the “atropine and α,β-methylene ATP-resistant component of 5-HT-induced contraction” value is “not abolished”; the “effect … to 5-HT” value was “no significant effect”.

In the case of `Cc1ccc(N(CC2=NCCN2)c2cccc(O)c2)cc1` [phentolamine, Phentolamine mesylate], the “effect on the 5-HT-induced contraction” value in test [1] is on record as “did not affect; also recorded: not blocked”.

As for `C[N+](C)(C)CCCCCC[N+](C)(C)C` [hexamethonium, Hexamethonium bromide], in test [1], the “effect on the 5-HT-induced contraction” value is “did not affect; also recorded: not blocked”.

Turning to `Nc1ncnc2c1ncn2C1OC(COP(=O)(O)CP(=O)(O)OP(=O)(O)O)C(O)C1O` (stereo not drawn) [α,β-methylene ATP, α,β-Methyleneadenosine 5'-Triphosphate], the “inhibition of the response to field stimulation” value in test [2] (10^-6M) is “about 35%”. Also, the “effect on the response to field stimulation” value in test [2] (atropine 10^-8 to 10^-6M) is on record as “dose-dependent inhibition”. Besides, the “inhibition of the 5-HT contractions” value in test [1] is given as “partially inhibited”.

As to `NCCc1c[nH]c2ccc(O)cc12` [5-HT, 5-Hydroxytryptamine creatinine sulphate complex], in test [3], the “contraction in the urethra” value is “dose-dependent contraction”. Also, the “contraction in the rabbit bladder” value in test [1] (30-second application, 10^-8 to 10^-3M) is “dose-dependent contraction”.

Consider `CN1[C@@H]2CC[C@H]1CC(OC(=O)C(CO)c1ccccc1)C2.CN1[C@@H]2CC[C@H]1CC(OC(=O)C(CO)c1ccccc1)C2.O=S(=O)(O)O` (stereo partly drawn) [Atropine, Atropine sulphate], for which, in test [2] (20 minute pretreatment, 10^-8 to 10^-6M, maximum at high frequencies), the “inhibition of the response to field stimulation (maximum)” value was found to be 40%. In addition, in test [2] (atropine 10^-8 to 10^-6M, 5-50 Hz, posterior detrusor of male rabbits), the “control response to field stimulation still persisting” value is recorded as “approximately 60%”. The “effect on the response to field stimulation” value in test [2] (atropine 10^-8 to 10^-6M) was “only partially inhibited”. The “inhibition of the 5-HT contractions” value in test [1] is recorded as “partially inhibited”.

For orientation: pA2 means a measure of antagonist potency on a negative log scale.
